Data on 1 compound can be found in PMC10689823, “Discovery of a Drug-like, Natural Product-Inspired DCAF11 Ligand Chemotype” (Nature Communications, 2023).

This experiment has as its target DCAF11 (Homo sapiens, UniProt Q8TEB1). The experiment can be described thus: Affinity-based enrichment (biotin-streptavidin pulldown) in Hep G2 cells overexpressing HA-DCAF11. Type of experiment: binding. On the set-up: host or cells: Hep G2. The note with it: 100 μM compound 2 pretreatment for 1 h. The protocol: Hep G2 cells (1 × 10^6 cells/well) were seeded in 6-well plates and incubated for 24 h. On the next day, the cells were transfected with 1 µg pCMV3-N-HA-DCAF11 plasmid (Sino Biological, HG16257-NY) or 1 µg empty vector (pcDNA3.1(+), Thermo Fisher, V79020) and 2.5 µL FuGENE® HD transfection reagent (Promega, E2311) per well. The cells were incubated for 48 h prior to treatment with 100 μM compound 2 for 1 h. […] The cells were washed with ice-cold PBS, then lysed in lysis buffer (150 mM sodium chloride, 1% NP-40, 50 mM TRIS-HCl, pH 8.0 with complete protease inhibitor cocktail (Roche, 11836170001)) for 30 min on ice. After centrifugation at 16,000 x g, the supernatant was transferred into a new tube and the protein concentration was determined using the DC protein assay (BIO-RAD, 5000116).
The supernatant was discarded and 1 mg of lysate in 500 µL lysis buffer was added to the beads and incubated for 1 h at room temperature with overhead rotation. The beads were washed twice with 500 µL washing buffer (50 mM PIPES (pH 7.4), 50 mM NaCl, 75 mM MgCl2, 5 mM EGTA, 0.1% NP-40, 0.1% Triton X-100, 0.1% Tween20) and twice with PBS for 10 min each at room temperature with overhead rotation. Enriched proteins were eluted by boiling of the beads at 95 °C for 5 min in 20 µL of a supersaturated (25 mM) biotin solution and visualized by Western Blotting as described above.

With `O=C1Nc2ccc(Br)cc2C1=Cc1cc(Br)c(O)c(Br)c1` [Compound 2], the “competition of DCAF11 enrichment by probe 14” value was “reduced the enrichment”.
